pIC50: −log10 of the molar value. Inconclusive results are not listed. Calls of active or inactive are those of the source. How the calls were made is not given here.
Molecular target: Cathepsin B (Homo sapiens) (UniProt P07858)
Assay: inhibitor potency against CatB, confirmatory, in vitro biochemical, concentration-effect curve (AID 820)
Conditions: purified cathepsin B enzyme activity, signal read-out

| SMILES | pIC50 | IC50 |
| --- | --- | --- |
| CCn1nc(-c2ccccc2)nc2c(=O)n(C)c(=O)nc1-2 | 7.15 | – |
| Nc1nc2n(n1)C1(CCCCC1)C1=C(CCCC1)N2 | 4.89 | – |
| CCn1nc(-c2cccs2)nc2c(=O)n(C)c(=O)nc1-2 | 7.14 | – |
| COc1ccc(C)c(Cn2c(-c3nonc3N)nc3ccccc32)c1 | 4.43 | – |
| COc1ccc(S(=O)(=O)n2nc(OC(=O)c3ccccc3)cc2N)cc1 | 5.02 | – |
| COc1ccc(C(=O)C(OC(=O)CNC(=O)c2ccco2)c2ccccc2)cc1 (stereo unspecified) | 4.74 | – |
| CCOC(=O)c1sc(=NC(=O)c2ccc(S(=O)(=O)N3CC(C)OC(C)C3)cc2)n(C)c1C (stereo unspecified) | – | > 50 µM (inactive) |
| COC(=O)c1ccccc1NC(=O)Cn1c(-c2nonc2N)nc2ccccc21 | – | > 50 µM (inactive) |
| COc1nc(N(C#N)CC(N)=O)nc(N2CCCC2)n1 | 4.85 | – |
| COc1ccc(S(=O)(=O)n2nc(OC(=O)c3ccc(C)cc3)cc2N)cc1 | 4.91 | – |
| CC1=C(C)CS(=O)N(S(=O)(=O)c2ccc(Cl)cc2)C1 (stereo unspecified) | 5.38 | – |
| O=C(OC(C(=O)NCc1cccs1)c1ccccn1)c1cccs1 (stereo unspecified) | 5.20 | – |
| Cc1ccc(S(=O)(=O)n2nc(OC(=O)c3cccs3)cc2N)cc1 | 5.70 | – |
| Nc1nonc1-c1nc2ccccc2n1CC(=O)N1CCCCC1 | 4.35 | – |
| CCOc1ccc(CCNC(=O)Cn2c(-c3nonc3N)nc3ccccc32)cc1OCC | – | > 50 µM (inactive) |
| Cc1ccc(S(=O)(=O)n2nc(OC(=O)c3ccco3)cc2N)cc1 | 5.76 | – |
| COc1ccc(S(=O)(=O)n2nc(OC(=O)c3ccco3)cc2N)cc1 | 6.03 | – |
| CC(=O)NC(=O)NC1OC(=O)C(Cl)=C1Cl (stereo unspecified) | 5.67 | – |
| N#Cc1c(N)sc(=S)c2c1CCN(Cc1ccccc1)C2 | 5.79 | – |
| Nc1nonc1-c1nc2ccccc2n1Cc1ccc(F)cc1 | 4.47 | – |
| COc1cccc(Cn2c(-c3nonc3N)nc3ccccc32)c1 | 4.34 | – |

| SMILES | pIC50 | IC50 |
| --- | --- | --- |
| O=C(Oc1oc(-c2ccco2)nc1C=Nc1ccccc1)c1ccco1 | 4.41 | – |
| CCN(C(=O)COc1cc(=O)n(C)c2ccccc12)c1cccc(Cl)c1 | – | > 50 µM (inactive) |
| O=C(CNC(=O)c1ccco1)OCN1C(=O)c2ccccc2C1=O | 5.07 | – |
| CCC(C)[C@@H](NC(=O)OC(C)(C)C)c1nnc(S(=O)(=O)Cc2cccc(C)c2)o1 (stereo partly specified) | 5.68 | – |
| Nc1cc(OC(=O)c2cccs2)nn1S(=O)(=O)c1ccc(F)cc1 | 6.36 | – |
| COc1ccc(C(=O)c2no[n+]([O-])c2C(=O)c2ccc(OC)cc2)cc1 | 4.94 | – |
| Nc1cc(OC(=O)c2ccco2)nn1S(=O)(=O)c1ccc(F)cc1 | 5.90 | – |
| O=S(=O)(/N=S1/CC=CCN1S(=O)(=O)c1ccccc1)c1ccccc1 (stereo unspecified) | 5.03 | – |
| N#Cc1c(N2CCCC2)nc(N)c2c(N)nc(N3CCCC3)cc12 | 5.50 | – |
| Nc1nonc1-c1noc(N2CCCCC2)n1 | – | > 50 µM (inactive) |
| COc1cc2c(cc1OC)-c1c(OC)c(OC)cc3c1C(C2)N(C)CC3 (stereo unspecified) | – | > 50 µM (inactive) |
| O=C1CC(c2ccco2)Cc2nc(N3CCc4ccccc4C3)ncc21 (stereo unspecified) | – | > 50 µM (inactive) |
| CCSc1ccccc1C(=O)n1nnc2ccccc21 | 5.15 | – |
| Nc1cc(OC(=O)c2cccs2)nn1S(=O)(=O)c1ccccc1 | 6.61 | – |
| Cn1c(=O)c2c(-c3ccccc3)n(-n3cnnc3)cc2n(C)c1=O | 5.93 | – |
| COc1ccc(N(CC(=O)NCC2CCCO2)S(=O)(=O)c2c(C)noc2C)cc1 (stereo unspecified) | – | > 50 µM (inactive) |
| CC(=O)OC1(C(F)(F)F)Oc2ccccc2NC1=O (stereo unspecified) | 6.07 | – |
| CCCCc1[nH]nc2c1C1(C(=O)N(CC)c3ccccc31)C(C#N)=C(N)O2 (stereo unspecified) | – | > 50 µM (inactive) |
| COc1ccc(S(=O)(=O)n2nc(OC(=O)c3cccs3)cc2N)cc1 | 6.16 | – |

From PubChem BioAssay AID820 (PCMD, 2007)
